Target: His-tagged recombinant human TrkA (Homo sapiens (Human), UniProt P04629)
Assay: TrkA LanthaScreen Eu Kinase Binding Assay
Conditions: averaged IC50; LanthaScreen binding assay of Example A; read-out: TrkA Enzyme IC50
Protocol: TrkA binding activity was determined in a TrkA LanthaScreen™ Eu Kinase Binding Assay. 5 nM His-tagged recombinant human TrkA (6HIS tagged cytoplasmic domain from Invitrogen, Catalog No. PV3144) was incubated with 4 nM Alexa-Fluor® Tracer 236 (Invitrogen Cat. No. PV5592), 2 nM biotinylated anti-His (Invitrogen Cat. No. PV6090), and 2 nM europium-labeled Streptavidin (Invitrogen Cat. No. PV5899), in buffer (25 mM MOPS, pH 7.5, 5 mM MgCl2, 0.005% Triton X-100). Three fold serial dilutions of compounds of the invention in DMSO were added to a final percentage of 2% DMSO. After 60-minute incubation at 22° C., the reaction was measured using the EnVision mutlimode plate reader (PerkinElmer) via TR-FRET dual wavelength detection at […]. The percent of control was calculated using a ratiometric emission factor. The IC50 values were determined by fitting a four parameter model to the percent of control data.
Table A provides averaged IC50 values for compounds of the invention when tested in the assay of Example A, where A represents an averaged IC50 value<100 nM.

Chain of His-tagged recombinant human TrkA (P04629 440-796): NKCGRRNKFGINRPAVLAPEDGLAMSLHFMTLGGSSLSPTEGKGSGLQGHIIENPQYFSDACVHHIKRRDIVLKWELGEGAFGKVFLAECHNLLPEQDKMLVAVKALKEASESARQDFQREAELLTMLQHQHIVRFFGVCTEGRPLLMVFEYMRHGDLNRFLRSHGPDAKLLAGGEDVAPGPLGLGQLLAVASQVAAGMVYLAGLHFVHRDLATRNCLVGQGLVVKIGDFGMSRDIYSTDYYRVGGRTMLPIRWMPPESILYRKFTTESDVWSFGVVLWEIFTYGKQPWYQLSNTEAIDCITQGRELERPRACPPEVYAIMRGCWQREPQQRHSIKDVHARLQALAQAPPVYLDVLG

IC50	Structure (SMILES)
< 100 nM	COCCN1C[C@@H](NC(=O)Nc2c(C)c(-c3ccc(C)nc3)nn2-c2ccccc2)[C@H](c2ccc(F)c(F)c2)C1 [Example 1, 1-((3S,4R)-4-(3,4-difluorophenyl)-1-(2-methoxyethyl)pyrrolidin-3-yl)-3-(4-methyl-3-(6-methylpyridin-3-yl)-1-phenyl-1H-pyrazol-5-yl)urea]
< 100 nM	COCCN1C[C@@H](NC(=O)Nc2c(C)c(-c3cnc(=O)n(C)c3)nn2-c2ccccc2)[C@H](c2ccc(F)c(F)c2)C1 [Example 28, 1-((3S,4R)-4-(3,4-difluorophenyl)-1-(2-methoxyethyl)pyrrolidin-3-yl)-3-(4-methyl-3-(1-methyl-2-oxo-1,2-dihydropyrimidin-5-yl)-1-phenyl-1H-pyrazol-5-yl)urea]
< 100 nM	COCCN1C[C@@H](NC(=O)Nc2c(C)c(-c3ccc(=O)n(C)c3)nn2-c2ccccc2)[C@H](c2ccc(Cl)c(F)c2)C1 (relative stereo) [Example 23, 1-(trans-4-(4-chloro-3-fluorophenyl)-1-(2-methoxyethyl)pyrrolidin-3-yl)-3-(4-methyl-3-(1-methyl-6-oxo-1,6-dihydropyridin-3-yl)-1-phenyl-1H-pyrazol-5-yl)urea]
< 100 nM	COCCN1C[C@@H](NC(=O)Nc2c(C)c(C(C)=O)nn2-c2ccccc2)[C@H](c2ccc(F)c(F)c2)C1 [Example 31, 1-(3-acetyl-4-methyl-1-phenyl-1H-pyrazol-5-yl)-3-((3S,4R)-4-(3,4-difluorophenyl)-1-(2-methoxyethyl)pyrrolidin-3-yl)urea]
